# Measured values as given in ChEMBL document CHEMBL3994582, “A2B adenosine receptor antagonists: Design, synthesis and biological evaluation of novel xanthine derivatives” (Eur J Med Chem, 2017).
# Tests used:
# [1] = Solubility of the compound; format: physicochemical
# [2] = molecular target: T1, Adenosine receptor A3 (Homo sapiens) (UniProt P0DMS8); experiment: Displacement of [3H]-HEM-ADO from human adenosine receptor A3 expressed in HEK293 cell membranes at 1 uM after 90 mins by liquid scintillation counting method relative to control
# T1 sequence (whole entry): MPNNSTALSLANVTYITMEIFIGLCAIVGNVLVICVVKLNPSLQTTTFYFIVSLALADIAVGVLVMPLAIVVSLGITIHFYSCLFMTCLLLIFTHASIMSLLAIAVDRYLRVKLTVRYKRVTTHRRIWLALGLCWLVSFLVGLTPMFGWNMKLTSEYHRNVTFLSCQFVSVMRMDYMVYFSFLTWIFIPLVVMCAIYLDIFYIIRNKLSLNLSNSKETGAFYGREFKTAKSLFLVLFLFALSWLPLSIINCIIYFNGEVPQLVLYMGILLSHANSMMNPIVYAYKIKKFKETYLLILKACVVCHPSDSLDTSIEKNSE
# [3] = tested on: Liver; experiment: Metabolic stability in human liver microsomes assessed as metabolic rate per mg protein preincubated for 5 mins followed by NADPH addition measured up to 30 mins by LC-MS/MS analysis; format: ADME, microsome; conditions: 0.5 h
# [4] = molecular target: T2, Adenosine receptor A1 (Homo sapiens) (UniProt P30542); experiment: Displacement of [3H]DPCPX from human adenosine receptor A1 expressed in HEK293 cell membranes at 0.1 uM after 90 mins by liquid scintillation counting method relative to control
# T2 sequence (whole entry): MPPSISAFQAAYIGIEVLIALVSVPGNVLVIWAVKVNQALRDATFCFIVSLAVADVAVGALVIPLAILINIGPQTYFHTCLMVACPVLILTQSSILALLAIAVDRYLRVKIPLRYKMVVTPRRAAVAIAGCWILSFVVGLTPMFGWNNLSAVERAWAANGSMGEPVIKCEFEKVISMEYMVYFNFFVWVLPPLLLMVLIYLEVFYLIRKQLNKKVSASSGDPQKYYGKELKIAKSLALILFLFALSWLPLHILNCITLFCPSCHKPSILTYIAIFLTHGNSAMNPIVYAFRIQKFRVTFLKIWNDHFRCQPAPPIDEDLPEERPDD
# [5] = tested on: Liver; experiment: Metabolic stability in mouse liver microsomes assessed as metabolic rate per mg protein preincubated for 5 mins followed by NADPH addition measured up to 30 mins by LC-MS/MS analysis; format: ADME, microsome; conditions: 0.5 h
# [6] = molecular target: T3, Adenosine receptor A2b (Homo sapiens, UniProt P29275); experiment: Displacement of [3H]-MRS-1754 from human adenosine receptor A2b expressed in HEK293 cell membranes after 90 mins by liquid scintillation counting method
# T3 sequence (P29275 whole entry): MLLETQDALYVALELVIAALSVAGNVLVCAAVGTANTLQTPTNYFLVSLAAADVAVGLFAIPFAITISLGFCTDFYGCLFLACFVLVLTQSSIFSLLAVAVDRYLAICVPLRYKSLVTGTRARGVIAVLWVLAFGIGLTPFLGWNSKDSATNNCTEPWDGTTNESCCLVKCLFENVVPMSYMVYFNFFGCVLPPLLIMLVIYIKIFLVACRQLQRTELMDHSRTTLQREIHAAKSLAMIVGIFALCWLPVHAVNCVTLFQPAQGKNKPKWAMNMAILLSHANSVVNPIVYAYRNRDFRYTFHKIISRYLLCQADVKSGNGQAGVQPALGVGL
# [7] = molecular target: T4, Adenosine receptor A2a (Homo sapiens, UniProt P29274); experiment: Displacement of [3H]-ZM-241385 from human adenosine receptor A2a expressed in HEK293 cell membranes at 0.1 uM after 90 mins by liquid scintillation counting method relative to control
# [8] = molecular target: T5, Adenosine receptor A1 (Homo sapiens, UniProt P30542); experiment: Displacement of [3H]DPCPX from human adenosine receptor A1 expressed in HEK293 cell membranes after 90 mins by liquid scintillation counting method
# T5 sequence (P30542 whole entry): T2 sequence (whole entry)
# [9] = organism: Homo sapiens; experiment: Selectivity ratio of Ki for human adenosine receptor A2a expressed in HEK293 cell membranes to Ki for human adenosine receptor A2b expressed in HEK293 cell membranes; format: cell-based
# [10] = molecular target: T3, Adenosine receptor A2b; experiment: Antagonist activity at human adenosine receptor A2b expressed in HEK293 cells assessed as inhibition of NECA-induced cAMP level preincubated for 15 mins followed by NECA stimulation for 15 mins by HTRF assay; format: functional, cell-based
# [11] = organism: Homo sapiens; experiment: Selectivity ratio of Ki for human adenosine receptor A1 expressed in HEK293 cell membranes to Ki for human adenosine receptor A2b expressed in HEK293 cell membranes; format: cell-based
# [12] = molecular target: T4, Adenosine receptor A2a; experiment: Displacement of [3H]-ZM-241385 from human adenosine receptor A2a expressed in HEK293 cell membranes after 90 mins by liquid scintillation counting method
# T4 sequence (P29274 whole entry): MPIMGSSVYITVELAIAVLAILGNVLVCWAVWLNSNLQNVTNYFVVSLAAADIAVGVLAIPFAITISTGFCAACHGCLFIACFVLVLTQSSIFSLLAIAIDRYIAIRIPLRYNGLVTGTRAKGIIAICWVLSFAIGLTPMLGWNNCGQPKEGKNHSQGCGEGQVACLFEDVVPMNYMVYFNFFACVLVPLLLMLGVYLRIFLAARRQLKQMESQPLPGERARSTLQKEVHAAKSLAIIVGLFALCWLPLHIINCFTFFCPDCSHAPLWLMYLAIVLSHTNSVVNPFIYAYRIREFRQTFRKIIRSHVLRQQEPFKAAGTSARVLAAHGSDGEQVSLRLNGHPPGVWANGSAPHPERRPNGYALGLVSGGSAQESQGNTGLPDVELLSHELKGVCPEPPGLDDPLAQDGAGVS
SMILES,solubility [1],inhibition [2] [%],Drug metabolism [3] [nmol/min/mg],inhibition [4] [%],Drug metabolism [5] [nmol/min/mg],Ki [6] [µM],inhibition [7] [%],Ki [8] [µM],Ratio Ki [9],Ki [10] [µM],Ratio Ki [11],Ki [12] [µM]
CCCn1c(=O)c2[nH]c(-c3ccc(OCC4CC(=O)N(c5cccc(C(F)(F)F)c5)C4)cc3)nc2n(CCC)c1=O (stereo not drawn),Insoluble,13,0.09,1,0.06,0.0075,80,–,–,–,–,–
CCCn1c(=O)c2[nH]c(-c3cnn(CC4CC(=O)N(c5ccc(OC)cc5)C4)c3)nc2n(CC)c1=O (stereo not drawn),–,14,0.11,15,0.07,0.016,21,0.711,30,0.014,44,0.486
CCCn1c(=O)c2[nH]c(-c3cnn(CC4CC(=O)N(c5ccc(F)cc5)C4)c3)nc2n(CC)c1=O (stereo not drawn),–,0,0,22,0.15,0.012,33,0.346,16,0.004,28,0.192
CCCn1c(=O)c2[nH]c(-c3ccc(OCC4CC(=O)N(c5ccc(C(F)(F)F)cc5)C4)nc3)nc2n(CCC)c1=O (stereo not drawn),Insoluble,0,0.02,25,0,0.003,46,> 0.8,17,0.071,> 266,0.053
CCCn1c(=O)c2[nH]c(-c3ccc(OCC4CC(=O)N(c5ccc(F)cc5)C4)nc3)nc2n(CCC)c1=O (stereo not drawn),Insoluble,53,–,30,–,0.004,80,–,–,–,–,–
CCCn1c(=O)c2[nH]c(-c3cc(OCC4CC(=O)N(c5ccc(C(F)(F)F)cc5)C4)no3)nc2n(CCC)c1=O (stereo not drawn),–,0,0.07,0,0.04,0.0128,18,4.2,226,0.54,328,2.9
CCCn1c(=O)c2[nH]c(-c3ccc(OCC4CC(=O)N(c5cccc(C(F)(F)F)c5)C4)nc3)nc2n(CCC)c1=O (stereo not drawn),Insoluble,26,0.05,4,0,0.0087,71,–,–,–,–,–
CCCn1c(=O)c2[nH]c(-c3ccc(OCC4CC(=O)N(c5cccc(F)c5)C4)cc3)nc2n(CCC)c1=O (stereo not drawn),Insoluble,19,–,33,–,0.009,89,–,–,–,–,–
CCCn1c(=O)c2[nH]c(-c3cnn(CC4CCN(c5ccc(OC(F)(F)F)cc5)C4=O)c3)nc2n(CCC)c1=O (stereo not drawn),–,32,0.02,51,0.03,0.006 to 0.008,7,0.34,6,0.191,56,0.036
CCCn1c(=O)c2[nH]c(-c3cnn(CC4CC(=O)N(c5ccc(F)cc5F)C4)c3)nc2n(CCC)c1=O (stereo not drawn),–,0,0.03,13,0.48,0.019,45,–,–,–,–,–
CCCn1c(=O)c2[nH]c(-c3cnn(CC4CC(=O)N(c5cccc(OC)c5)C4)c3)nc2n(CCC)c1=O (stereo not drawn),–,11,0.18,22,0.41,0.0216,46,–,–,–,–,–
CCCn1c(=O)c2[nH]c(-c3ccc(OCC4CC(=O)N(c5ccc(C(F)(F)F)cc5)C4)cc3)nc2n(CCC)c1=O (stereo not drawn),Insoluble,23,0.05,29,0.01,0.001,60,–,–,–,–,–
CCCn1c(=O)c2[nH]c(-c3cnn(C(C)C4CC(=O)N(c5cccc(C(F)(F)F)c5)C4)c3)nc2n(CCC)c1=O (stereo not drawn),–,18,0.2,17,0.59,0.004,15,–,–,–,–,–
CCCn1c(=O)c2[nH]c(-c3ccc(OCC4CC(=O)N(c5cccc(F)c5)C4)nc3)nc2n(CCC)c1=O (stereo not drawn),Insoluble,53,–,17,–,0.0046,85,–,–,–,–,–
CCCn1c(=O)c2[nH]c(-c3cnn(CC4CC(=O)N(c5ccc(OC)cc5)C4)c3)nc2n(CCC)c1=O (stereo not drawn),–,27,0.19,38,0.22,0.009,51,–,–,–,–,–
CCCn1c(=O)c2[nH]c(-c3cnn(CC4CC(=O)N(c5ccc(F)cc5)C4)c3)nc2n(CCC)c1=O (stereo not drawn),–,14,0.06,31,0.19,0.0097,42,–,–,–,–,–
CCCn1c(=O)c2[nH]c(-c3cnn(CCC4CC(=O)N(c5cccc(C(F)(F)F)c5)C4)c3)nc2n(CCC)c1=O (stereo not drawn),–,29,0.14,40,0.3,0.0026,65,–,–,–,–,–
CCCn1c(=O)c2[nH]c(-c3ccc(OCC4CC(=O)N(c5ccc(F)cc5)C4)cc3)nc2n(CCC)c1=O (stereo not drawn),Insoluble,44,–,29,–,0.0054,89,–,–,–,–,–
